Starred links: 1 amine or outer side, 2 acyl side, 3 side chain; linkers in the order of their positions; H or OH if unused. Positions of bridges follow the written chain, without caps; N, C: chain ends. Non-standard residues stand in square brackets, D forms with d. Residues, ends and D or L forms follow the SMILES beside them. Groups on a side chain read outwards from the residue. *: point of attachment. Trp(1-CH2COOH) = N[C@@H](Cc1cn(CC(=O)O)c2ccccc12)C(=O)O; Benzoyl(2-(4-MeOPh)) = COc1ccc(-c2ccccc2C(=O)*)cc1; NH(1-naphthyl) = c1ccc2c(N*)cccc2c1; X1 = S=C(Nc1ccc2c(c1)Cc1ccccc1-2)*; X49 = N#Cc1ccccc1NC(=N)c1ccccc1N*; Hyp = O=C(O)[C@@H]1C[C@@H](O)CN1; X34 = O=C(c1c2ccccc2cc2ccccc12)*; X78 = S=C(Nc1c(Cl)cc(Cl)cc1Cl)*; X30 = FC(F)(F)c1ccc(N*)c(Cl)c1; pNA = O=[N+]([O-])c1ccc(N*)cc1; X55 = COc1cc(NC(=S)*)cc(OC)c1; NMeNle = CCCC[C@H](NC)C(=O)O; X85 = S=C(Nc1c(Cl)cccc1Cl)*; X86 = CCOc1ccc(NC(=S)*)cc1; X93 = c1cc2c(c(N*)c1)CCCC2; NMeA = CN[C@@H](C)C(=O)O; X58 = COc1cc(N*)cc(OC)c1; Dab = NCC[C@H](N)C(=O)O; Dap = NC[C@H](N)C(=O)O; X15 = Cc1ccc(Cl)cc1N*; CO = O=C([*:1])[*:2]
What follows are compounds tested against T1, PD-1/PD-L1 (Homo sapiens, UniProt Q9NZQ7) (assay: PD-1/PD-L1 Homogenous Time-Resolved Fluorescence (HTRF) binding assay). Conditions: not given.
T1 construct: TVMV protease site linker (C); made in house; host or cells: HEK293T cells
Procedure, shortened: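 Compounds preincubated 15 min with PD-L1-His (10 nM final), then PD-1-Ig (20 nM final) added for 15 min in dPBS with 0.1% BSA, 0.05% Tween-20. Detection by Eu-cryptate anti-Ig (1 nM) and APC anti-His (20 nM) HTRF.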

T1 sequence (Q9NZQ7 18-239): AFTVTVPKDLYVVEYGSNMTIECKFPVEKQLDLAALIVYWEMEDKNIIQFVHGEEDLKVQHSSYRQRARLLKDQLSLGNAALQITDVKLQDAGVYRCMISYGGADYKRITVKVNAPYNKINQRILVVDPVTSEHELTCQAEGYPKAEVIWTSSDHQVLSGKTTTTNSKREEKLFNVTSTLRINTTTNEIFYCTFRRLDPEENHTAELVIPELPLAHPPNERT

| SMILES | IC50 [nM] |
| --- | --- |
| CCCC[C@H]1C(=O)N(C)[C@@H](CCCC)C(=O)N[C@@H](CC(C)C)C(=O)N[C@H](C(=O)NCC(N)=O)CSCC(=O)N[C@@H](Cc2ccc(O)cc2)C(=O)N(C)[C@@H](C)C(=O)N[C@@H](CC(N)=O)C(=O)N2CCC[C@H]2C(=O)N[C@@H](CNC(=O)Nc2cccc3ccccc23)C(=O)N[C@@H](CC(C)C)C(=O)N2C[C@H](O)C[C@H]2C(=O)N[C@@H](Cc2c[nH]c3ccccc23)C(=O)N[C@@H](CCN)C(=O)N[C@@H](Cc2cn(CC(=O)O)c3ccccc23)C(=O)N1C [Example 3040] ({CH2CO}-Y[NMeA]NP[Dap]([CO-NH(1-naphthyl)])L[Hyp]W[Dab][Trp(1-CH2COOH)][NMeNle][NMeNle]LCG-NH2; thioether N-14) | 0.8 |
| CCCC[C@H]1C(=O)N(C)[C@@H](CCCC)C(=O)N[C@@H](CC(C)C)C(=O)N[C@H](C(=O)NCC(N)=O)CSCC(=O)N[C@@H](Cc2ccc(O)cc2)C(=O)N(C)[C@@H](C)C(=O)N[C@@H](CC(N)=O)C(=O)N2CCC[C@H]2C(=O)N[C@@H](CN)C(=O)N[C@@H](CC(C)C)C(=O)N2C[C@H](O)C[C@H]2C(=O)N[C@@H](Cc2c[nH]c3ccccc23)C(=O)N[C@@H](CCNC(=O)Nc2ccc([N+](=O)[O-])cc2)C(=O)N[C@@H](Cc2cn(CC(=O)O)c3ccccc23)C(=O)N1C [Example 1131] ({CH2CO}-Y[NMeA]NP[Dap]L[Hyp]W[Dab]([CO-pNA])[Trp(1-CH2COOH)][NMeNle][NMeNle]LCG-NH2; thioether N-14) | 7.3 |
| CCCC[C@H]1C(=O)N(C)[C@@H](CCCC)C(=O)N[C@@H](CC(C)C)C(=O)N[C@H](C(=O)NCC(N)=O)CSCC(=O)N[C@@H](Cc2ccc(O)cc2)C(=O)N(C)[C@@H](C)C(=O)N[C@@H](CC(N)=O)C(=O)N2CCC[C@H]2C(=O)N[C@@H](CNC(=O)Nc2cccc3c2CCCC3)C(=O)N[C@@H](CC(C)C)C(=O)N2C[C@H](O)C[C@H]2C(=O)N[C@@H](Cc2c[nH]c3ccccc23)C(=O)N[C@@H](CCNC(=O)Nc2cccc3c2CCCC3)C(=O)N[C@@H](Cc2cn(CC(=O)O)c3ccccc23)C(=O)N1C [Example 3015] ({CH2CO}-Y[NMeA]NP[Dap]([CO-X93])L[Hyp]W[Dab]([CO-X93])[Trp(1-CH2COOH)][NMeNle][NMeNle]LCG-NH2; thioether N-14) | 0.7 |

Same assay, conditions: PD-L1-His 10 nM pre-incubated with inhibitor, PD-1-Ig 20 nM; read-out: HTRF IC50

| SMILES | IC50 [nM] |
| --- | --- |
| CCCC[C@H]1C(=O)N(C)[C@@H](CCCC)C(=O)N[C@@H](CC(C)C)C(=O)N[C@H](C(=O)NCC(N)=O)CSCC(=O)N[C@@H](Cc2ccc(O)cc2)C(=O)N(C)[C@@H](C)C(=O)N[C@@H](CC(N)=O)C(=O)N2CCC[C@H]2C(=O)N[C@@H](CNC(=S)Nc2ccc3c(c2)Cc2ccccc2-3)C(=O)N[C@@H](CC(C)C)C(=O)N2C[C@H](O)C[C@H]2C(=O)N[C@@H](Cc2c[nH]c3ccccc23)C(=O)N[C@@H](CCNC(=S)Nc2ccc3c(c2)Cc2ccccc2-3)C(=O)N[C@@H](Cc2cn(CC(=O)O)c3ccccc23)C(=O)N1C [Example 2007] ({CH2CO}-Y[NMeA]NP[Dap](X1)L[Hyp]W[Dab](X1)[Trp(1-CH2COOH)][NMeNle][NMeNle]LCG-NH2; thioether N-14) | 13.3 |
| CCCC[C@H]1C(=O)N(C)[C@@H](CCCC)C(=O)N[C@@H](CC(C)C)C(=O)N[C@H](C(=O)NCC(N)=O)CSCC(=O)N[C@@H](Cc2ccc(O)cc2)C(=O)N(C)[C@@H](C)C(=O)N[C@@H](CC(N)=O)C(=O)N2CCC[C@H]2C(=O)N[C@@H](CNC(=O)c2c3ccccc3cc3ccccc23)C(=O)N[C@@H](CC(C)C)C(=O)N2C[C@H](O)C[C@H]2C(=O)N[C@@H](Cc2c[nH]c3ccccc23)C(=O)N[C@@H](CCNC(=O)c2c3ccccc3cc3ccccc23)C(=O)N[C@@H](Cc2cn(CC(=O)O)c3ccccc23)C(=O)N1C [Example 2011] ({CH2CO}-Y[NMeA]NP[Dap](X34)L[Hyp]W[Dab](X34)[Trp(1-CH2COOH)][NMeNle][NMeNle]LCG-NH2; thioether N-14) | 4.7 |
| CCCC[C@H]1C(=O)N(C)[C@@H](CCCC)C(=O)N[C@@H](CC(C)C)C(=O)N[C@H](C(=O)NCC(N)=O)CSCC(=O)N[C@@H](Cc2ccc(O)cc2)C(=O)N(C)[C@@H](C)C(=O)N[C@@H](CC(N)=O)C(=O)N2CCC[C@H]2C(=O)N[C@@H](CNC(=O)Nc2cc(OC)cc(OC)c2)C(=O)N[C@@H](CC(C)C)C(=O)N2C[C@H](O)C[C@H]2C(=O)N[C@@H](Cc2c[nH]c3ccccc23)C(=O)N[C@@H](CCN)C(=O)N[C@@H](Cc2cn(CC(=O)O)c3ccccc23)C(=O)N1C [Example 1064] ({CH2CO}-Y[NMeA]NP[Dap]([CO-X58])L[Hyp]W[Dab][Trp(1-CH2COOH)][NMeNle][NMeNle]LCG-NH2; thioether N-14) | 3 |
| CCCC[C@H]1C(=O)N(C)[C@@H](CCCC)C(=O)N[C@@H](CC(C)C)C(=O)N[C@H](C(=O)NCC(N)=O)CSCC(=O)N[C@@H](Cc2ccc(O)cc2)C(=O)N(C)[C@@H](C)C(=O)N[C@@H](CC(N)=O)C(=O)N2CCC[C@H]2C(=O)N[C@@H](CN)C(=O)N[C@@H](CC(C)C)C(=O)N2C[C@H](O)C[C@H]2C(=O)N[C@@H](Cc2c[nH]c3ccccc23)C(=O)N[C@@H](CCNC(=O)Nc2ccc(C(F)(F)F)cc2Cl)C(=O)N[C@@H](Cc2cn(CC(=O)O)c3ccccc23)C(=O)N1C [Example 1115] ({CH2CO}-Y[NMeA]NP[Dap]L[Hyp]W[Dab]([CO-X30])[Trp(1-CH2COOH)][NMeNle][NMeNle]LCG-NH2; thioether N-14) | 10 |
| CCCC[C@H]1C(=O)N(C)[C@@H](CCCC)C(=O)N[C@@H](CC(C)C)C(=O)N[C@H](C(=O)NCC(N)=O)CSCC(=O)N[C@@H](Cc2ccc(O)cc2)C(=O)N(C)[C@@H](C)C(=O)N[C@@H](CC(N)=O)C(=O)N2CCC[C@H]2C(=O)N[C@@H](CNC(=S)Nc2c(Cl)cccc2Cl)C(=O)N[C@@H](CC(C)C)C(=O)N2C[C@H](O)C[C@H]2C(=O)N[C@@H](Cc2c[nH]c3ccccc23)C(=O)N[C@@H](CCNC(=S)Nc2c(Cl)cccc2Cl)C(=O)N[C@@H](Cc2cn(CC(=O)O)c3ccccc23)C(=O)N1C [Example 1039] ({CH2CO}-Y[NMeA]NP[Dap](X85)L[Hyp]W[Dab](X85)[Trp(1-CH2COOH)][NMeNle][NMeNle]LCG-NH2; thioether N-14) | 0.6 |
| CCCC[C@H]1C(=O)N(C)[C@@H](CCCC)C(=O)N[C@@H](CC(C)C)C(=O)N[C@H](C(=O)NCC(N)=O)CSCC(=O)N[C@@H](Cc2ccc(O)cc2)C(=O)N(C)[C@@H](C)C(=O)N[C@@H](CC(N)=O)C(=O)N2CCC[C@H]2C(=O)N[C@@H](CNC(=S)Nc2c(Cl)cc(Cl)cc2Cl)C(=O)N[C@@H](CC(C)C)C(=O)N2C[C@H](O)C[C@H]2C(=O)N[C@@H](Cc2c[nH]c3ccccc23)C(=O)N[C@@H](CCNC(=S)Nc2c(Cl)cc(Cl)cc2Cl)C(=O)N[C@@H](Cc2cn(CC(=O)O)c3ccccc23)C(=O)N1C [Example 1077] ({CH2CO}-Y[NMeA]NP[Dap](X78)L[Hyp]W[Dab](X78)[Trp(1-CH2COOH)][NMeNle][NMeNle]LCG-NH2; thioether N-14) | 5.7 |
| CCCC[C@H]1C(=O)N(C)[C@@H](CCCC)C(=O)N[C@@H](CC(C)C)C(=O)N[C@H](C(=O)NCC(N)=O)CSCC(=O)N[C@@H](Cc2ccc(O)cc2)C(=O)N(C)[C@@H](C)C(=O)N[C@@H](CC(N)=O)C(=O)N2CCC[C@H]2C(=O)N[C@@H](CNC(=O)Nc2ccccc2C(=N)Nc2ccccc2C#N)C(=O)N[C@@H](CC(C)C)C(=O)N2C[C@H](O)C[C@H]2C(=O)N[C@@H](Cc2c[nH]c3ccccc23)C(=O)N[C@@H](CCNC(=S)Nc2cc(OC)cc(OC)c2)C(=O)N[C@@H](Cc2cn(CC(=O)O)c3ccccc23)C(=O)N1C [Example 1088] ({CH2CO}-Y[NMeA]NP[Dap]([CO-X49])L[Hyp]W[Dab](X55)[Trp(1-CH2COOH)][NMeNle][NMeNle]LCG-NH2; thioether N-14) | 2.9 |
| CCCC[C@H]1C(=O)N(C)[C@@H](CCCC)C(=O)N[C@@H](CC(C)C)C(=O)N[C@H](C(=O)NCC(N)=O)CSCC(=O)N[C@@H](Cc2ccc(O)cc2)C(=O)N(C)[C@@H](C)C(=O)N[C@@H](CC(N)=O)C(=O)N2CCC[C@H]2C(=O)N[C@@H](CNC(=O)c2ccccc2-c2ccc(OC)cc2)C(=O)N[C@@H](CC(C)C)C(=O)N2C[C@H](O)C[C@H]2C(=O)N[C@@H](Cc2c[nH]c3ccccc23)C(=O)N[C@@H](CCN)C(=O)N[C@@H](Cc2cn(CC(=O)O)c3ccccc23)C(=O)N1C [Example 1063] ({CH2CO}-Y[NMeA]NP[Dap](Benzoyl(2-(4-MeOPh)))L[Hyp]W[Dab][Trp(1-CH2COOH)][NMeNle][NMeNle]LCG-NH2; thioether N-14) | 3.7 |
| CCCC[C@H]1C(=O)N(C)[C@@H](CCCC)C(=O)N[C@@H](CC(C)C)C(=O)N[C@H](C(=O)NCC(N)=O)CSCC(=O)N[C@@H](Cc2ccc(O)cc2)C(=O)N(C)[C@@H](C)C(=O)N[C@@H](CC(N)=O)C(=O)N2CCC[C@H]2C(=O)N[C@@H](CN)C(=O)N[C@@H](CC(C)C)C(=O)N2C[C@H](O)C[C@H]2C(=O)N[C@@H](Cc2c[nH]c3ccccc23)C(=O)N[C@@H](CCNC(=O)Nc2cc(Cl)ccc2C)C(=O)N[C@@H](Cc2cn(CC(=O)O)c3ccccc23)C(=O)N1C [Example 1117] ({CH2CO}-Y[NMeA]NP[Dap]L[Hyp]W[Dab]([CO-X15])[Trp(1-CH2COOH)][NMeNle][NMeNle]LCG-NH2; thioether N-14) | 4.7 |
| CCCC[C@H]1C(=O)N(C)[C@@H](CCCC)C(=O)N[C@@H](CC(C)C)C(=O)N[C@H](C(=O)NCC(N)=O)CSCC(=O)N[C@@H](Cc2ccc(O)cc2)C(=O)N(C)[C@@H](C)C(=O)N[C@@H](CC(N)=O)C(=O)N2CCC[C@H]2C(=O)N[C@@H](CNC(=S)Nc2ccc(OCC)cc2)C(=O)N[C@@H](CC(C)C)C(=O)N2C[C@H](O)C[C@H]2C(=O)N[C@@H](Cc2c[nH]c3ccccc23)C(=O)N[C@@H](CCNC(=S)Nc2ccc(OCC)cc2)C(=O)N[C@@H](Cc2cn(CC(=O)O)c3ccccc23)C(=O)N1C [Example 1027] ({CH2CO}-Y[NMeA]NP[Dap](X86)L[Hyp]W[Dab](X86)[Trp(1-CH2COOH)][NMeNle][NMeNle]LCG-NH2; thioether N-14) | 3.7 |

Reference: patent US20220389061A1, “IMMUNOMODULATORS” (priority 2019, published 2022)
